According to patent US20220152019A1, “COMPOUNDS, COMPOSITIONS, AND METHODS FOR TREATING INFLAMMATORY OR IMMUNE-MEDIATED CONDITIONS OF SURFACE TISSUES” (Landos Biopharma, Inc., priority 2020, published 2022):

Legend:
[1] = system: cervical lymph node CD3+CD4+ T cells; assay: Flow cytometry of cervical lymph node cells from the MC903-induced atopic dermatitis model; type: in vivo, mice; details: cervical lymph nodes, BT-11 cream 2% vs placebo cream
Method: MC903-induced model. MC903 (2 nM in 20 uL ethanol) was applied to the dorsal ear skin three times per week for nine applications. BT-11 topical cream (2%) (Formula F3 is Table 2) was applied to the ear daily. Mice were scored for erythema, scaling and skin thickness, summarized into a composite disease activity index score through day 19. Analysis. Cervical lymph nodes were excised and crushed by microscope slides. Red blood cells were hypotonically lysed from the resultant suspension. Samples were filtered, washed and centrifuged prior to staining. Production of IFNγ, IL-5, and IL-4 were quantified from CD3+CD4+ T cells by flow cytometry.

[2] = system: Imiquimod (IMQ)-induced psoriasis in C57BL/6 mice; assay: Imiquimod (IMQ)-induced model of psoriasis, topical treatment, PASI scoring; type: in vivo; details: BT-11 dihydrochloride salt 200 μg in DMSO, vs DMSO control, day 7
Method: (§1) Imiquimod (IMQ)-induced model. C57BL/6 mice were anesthetized, shaved, and briefly exposed to depilatory cream on the surface of the back. Mice were given three days to recover from the procedure prior to entry to the study. After 3 days, mice were challenged with approximately 60 mg of […] imiquimod cream daily by spreading cream over the shaved area. Treatment with BT-11 dihydrochloride salt (200 μg) in dimethyl sulfoxide (DMSO) or a DMSO control lacking BT-11 occurred by topical application to the shaved area. Mice were scored for erythema, scaling and skin thickness, summarized into a composite psoriasis area and severity index (PASI) score on a scale from 0 to 12, on day 7.

[3] = system: splenic CD3+CD4+ T cells and CD45+ cells; assay: Flow cytometry of spleen cells from the IMQ-induced psoriasis model; type: in vivo, mice; details: topical BT-11 vs DMSO control
Method: as §1
Analysis. Spleens were excised and crushed by microscope slides. Red blood cells were hypotonically lysed from the resultant suspension. Samples were filtered, washed and centrifuged prior to staining. Production of TNF, IL-17, and IL-21 were quantified from CD3+CD4+ T cells and IL6 from CD45+ by flow cytometry.

[4] = system: MC903-induced atopic dermatitis in mice; assay: MC903-induced model of atopic dermatitis, topical cream, disease activity index scoring; type: in vivo; details: BT-11 topical cream 2% (Formula F3) daily to the ear, vs placebo cream
Method: MC903-induced model. MC903 (2 nM in 20 uL ethanol) was applied to the dorsal ear skin three times per week for nine applications. BT-11 topical cream (2%) (Formula F3 is Table 2) was applied to the ear daily. Mice were scored for erythema, scaling and skin thickness, summarized into a composite disease activity index score through day 19.

O=C(c1cccc(-c2nc3ccccc3[nH]2)n1)N1CCN(C(=O)c2cccc(-c3nc4ccccc4[nH]3)n2)CC1 [BT-11, piperazine-1,4-diylbis((6-(1H-benzo[d]imidazo-2-yl)pyridine-2-yl)methanone)]
cervical lymph node proportion of IFNγ-positive CD4+ T cells ([1]; FIG. 2B): reduced
cervical lymph node proportion of IL-4-positive CD4+ T cells ([1]; FIG. 2C): reduced
cervical lymph node proportion of IL-5-positive CD4+ T cells ([1]; FIG. 2D): reduced
PASI subscores (erythema, scaling, skin thickness) [2]: reductions in each subscore
splenic proportion of TNF-positive CD4+ T cells ([3]; FIG. 1B): reduced
splenic proportion of IL-17-positive CD4+ T cells ([3]; FIG. 1C): reduced
splenic proportion of IL-21-positive CD4+ T cells ([3]; FIG. 1D): reduced
splenic proportion of IL-6+ cells within all CD45+ immune cells ([3]; FIG. 1E): reduction
disease activity subscores (erythema, scaling, skin thickness) [4]: reductions in each subscore
reduction of severity of disease (composite disease activity index score) ([4]; through day 19, FIG. 2A): approximately 70%
